Read-outs that look alike come from different tables or passages of the source.

In assay [1] the target is T1, β adrenergic receptors (β1) (Canis lupus familiaris, UniProt P79148).
T1 construct: The dog is anaesthetized using sodium pentobarbital; from tissue; host or cells: whole anaesthetized dog (heart)
The assay is described as follows: Antagonism of the effects of isoprenaline, tachycardia (β1), anaesthetized dog, IV. The class given is in vivo. To be noted: for cardioselectivity β1 - β2 / ED50: dog; for cardioselectivity β1 - β2: isoprenaline antagonism, β1 versus β2; for ED50: read-out: ID50 ISOPRENALINE β1; for cardioselective in vivo (selectively inhibit the cardiac receptors): test with isoprenaline.

Assay [2] deals with T2, β adrenergic receptors (β2) (Canis lupus familiaris, UniProt P54833).
T2 construct: The dog is anaesthetized using sodium pentobarbital; from tissue; host or cells: whole anaesthetized dog (vasculature)
T2 sequence (P54833 whole entry): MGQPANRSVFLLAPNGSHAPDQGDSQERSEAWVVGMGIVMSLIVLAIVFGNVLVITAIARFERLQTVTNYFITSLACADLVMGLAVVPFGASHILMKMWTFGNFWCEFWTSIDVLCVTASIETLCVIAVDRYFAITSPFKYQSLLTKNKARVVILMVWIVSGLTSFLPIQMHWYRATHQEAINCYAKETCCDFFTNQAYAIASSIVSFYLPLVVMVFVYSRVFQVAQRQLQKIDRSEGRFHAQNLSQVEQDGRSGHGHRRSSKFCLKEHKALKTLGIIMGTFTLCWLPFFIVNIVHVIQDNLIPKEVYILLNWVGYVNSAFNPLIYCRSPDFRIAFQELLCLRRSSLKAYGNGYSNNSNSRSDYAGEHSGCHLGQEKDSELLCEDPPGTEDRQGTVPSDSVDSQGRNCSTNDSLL
In words: Antagonism of the effects of isoprenaline, hypotension (β2), anaesthetized dog, IV. To be noted: read-out: ID50 ISOPRENALINE β2. The class given is in vivo. Here is the method: (§1) The dog is anaesthetized using sodium pentobarbital, administered by the IV route at a dose of 30 mg/kg. A cannula placed in the saphenous vein allows the intra-venous injections of the products. The animal is submitted to intubation and is allowed to breathe spontaneously.
(§2) The cardiac frequency and the systemic arterial pressure are studied and the variations of these parameters are observed after intra-venous injection of the product to be tested. Each product is tested with increasing doses.
The antagonism of the products with respect to the β stimulant cardio-vascular effects of isoprenaline on the β adrenergic receptors has been sought. […] The last column indicates the cardioselectivity (β1 >β2) or a low cardioselectivity β1 ≥β2, or no cardioselectivity β1 <β2 and β1 =β2.

Assay [3] concerns α adrenergic receptors. In words: Antagonism of the effects of noradrenaline (pressure response), anaesthetized dog, IV. The class given is in vivo. To be noted: 50% inhibition of pressure response to noradrenaline. On the procedure:
as §1, §2
The antagonism of the products with respect to the vascular effects provoked by the IV administration of noradrenaline on the α adrenergic receptors has been sought. The results presented in Table III are expressed in ID50 : it is the dose (mg/kg) which provokes the inhibition by 50% of the pressure response due to the IV administration of noradrenaline.

The target of assay [4] is T3, β1 receptor (Canis lupus familiaris, UniProt P79148).
T3 construct: plasmic membranes of hearts of dogs (β1 receptor); from tissue; host or cells: dog heart plasma membranes
T3 sequence (P79148 whole entry): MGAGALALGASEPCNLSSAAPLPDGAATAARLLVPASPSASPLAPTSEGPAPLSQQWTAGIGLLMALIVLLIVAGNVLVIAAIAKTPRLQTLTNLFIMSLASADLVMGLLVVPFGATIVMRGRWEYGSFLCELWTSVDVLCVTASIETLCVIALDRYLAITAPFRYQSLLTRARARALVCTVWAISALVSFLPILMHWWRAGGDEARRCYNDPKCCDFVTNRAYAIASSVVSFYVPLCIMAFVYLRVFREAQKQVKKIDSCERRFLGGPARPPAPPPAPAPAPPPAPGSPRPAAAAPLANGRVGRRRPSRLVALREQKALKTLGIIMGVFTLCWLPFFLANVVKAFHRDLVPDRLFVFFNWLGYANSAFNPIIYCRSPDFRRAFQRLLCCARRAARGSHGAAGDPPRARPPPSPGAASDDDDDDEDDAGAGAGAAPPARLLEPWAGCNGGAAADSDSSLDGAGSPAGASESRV
The assay is described as follows: Displacement of 3H dihydroalprenolol, plasmic membranes of hearts of dogs. The class given is binding, dog. On the procedure: (§3) The binding tests are effected on suspensions of plasmic membranes coming from various organs. The suspensions of membranes are placed in incubation with the tritiated ligand and various concentrations of products to be tested. After incubation, each test is filtered on GFB(Whatman) filter, the filters are dried and introduced into counting flasks. The measurement of the radioactivity is assessed by scintillation in a liquid medium.
(§4) The tests were made on plasmic membranes of hearts of dogs (β1 receptor) and lungs of rats (β2 receptors), in the presence of ^3 H dihydroalprenolol 4×10^-9 M.

Assay [5] concerns the target T4, β2 receptors (Rattus norvegicus, UniProt P10608).
T4 construct: lungs of rats (β2 receptors); from tissue; host or cells: rat lung plasma membranes
In words: Displacement of 3H dihydroalprenolol, plasmic membranes of lungs of rats. In kind it is binding. On the procedure:
as §3, §4

For assay [6], the target named is T5, α2 receptor (Rattus norvegicus, UniProt P22909).
T5 construct: plasmic membranes of rat brains; from tissue; host or cells: rat brain plasma membranes
T5 sequence (P22909 1-465): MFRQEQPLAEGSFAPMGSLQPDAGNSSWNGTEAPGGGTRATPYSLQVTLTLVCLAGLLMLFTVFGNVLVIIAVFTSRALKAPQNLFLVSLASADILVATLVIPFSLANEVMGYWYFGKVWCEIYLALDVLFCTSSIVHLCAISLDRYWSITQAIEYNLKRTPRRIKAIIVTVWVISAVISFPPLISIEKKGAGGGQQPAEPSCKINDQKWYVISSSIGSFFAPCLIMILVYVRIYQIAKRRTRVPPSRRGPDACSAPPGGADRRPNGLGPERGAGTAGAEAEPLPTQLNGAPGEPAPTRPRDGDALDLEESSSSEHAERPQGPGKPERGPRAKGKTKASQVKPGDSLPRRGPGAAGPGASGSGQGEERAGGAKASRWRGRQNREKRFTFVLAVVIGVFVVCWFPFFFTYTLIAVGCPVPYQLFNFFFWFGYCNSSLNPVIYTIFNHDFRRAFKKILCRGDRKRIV
In words: Displacement of 3H clonidine, plasmic membranes of rat brains. The class given is binding. The note with it: for affinity for the receptor with clonidine (α2): in vitro. On the procedure: as §3
(§5) The tests were made on plasmic membranes of rat brains, in the presence of ^3 H clonidine 1.2×10^-9 M (α2 receptor) and of ^3 H WB4101 (N-[2-(2.6dimethoxyphenoxy)ethyl]1.4benzodioxane-2-methylamine), 0.2×10^-9 M (α1 receptor).

Assay [7] deals with α1 receptor. In words: Displacement of 3H WB 4101, plasmic membranes of rat brains. The class given is binding. To be noted: for affinity for the receptor with WB 4101 (α1): in vitro; for EC50: read-out: EC50 of DISPLACEMENT of 3H WB 4101, rat brain membranes, 3H WB4101 0.2×10^-9 M. On the procedure: as §3, §5
Assay [8] in a line: Cardiac frequency and arterial pressure in the anaesthetized dog after intravenous injection. In kind it is in vivo. The note with it: i.v. route, anaesthetised dog. Here is the method:
as §1, §2

Assay [9] deals with platelet aggregation. The assay is described as follows: Anti-aggregating activity, BORN technique, plasma rich in platelets, ADP. In kind it is cell-based, human. To be noted: for IC50: Homo sapiens, Platelet, read-out: concentration for inhibiting by 50% the maximum rate of aggregation; for inhibition of the platelet response with respect to the ADP: human platelet-rich plasma. On the procedure:
The anti-aggregating activity of the CM 7743, 7744, 7824, 7854, 7859 and 7874 has been studied according to the BORN technique on plasma rich in platelets of human origin. ADP has been used as indicator of platelet aggregation. […] The required concentration for inhibiting by 50% the maximum rate of aggregation varies from 45 to 100 μM.

[10] abbreviates: IV, 50% inhibition of isoprenaline tachycardia.
Setting [11] is: IV, 50% inhibition of isoprenaline hypotension.

T1 sequence (P79148 whole entry): as the sequence (P79148 whole entry) above
T4 sequence (P10608 whole entry): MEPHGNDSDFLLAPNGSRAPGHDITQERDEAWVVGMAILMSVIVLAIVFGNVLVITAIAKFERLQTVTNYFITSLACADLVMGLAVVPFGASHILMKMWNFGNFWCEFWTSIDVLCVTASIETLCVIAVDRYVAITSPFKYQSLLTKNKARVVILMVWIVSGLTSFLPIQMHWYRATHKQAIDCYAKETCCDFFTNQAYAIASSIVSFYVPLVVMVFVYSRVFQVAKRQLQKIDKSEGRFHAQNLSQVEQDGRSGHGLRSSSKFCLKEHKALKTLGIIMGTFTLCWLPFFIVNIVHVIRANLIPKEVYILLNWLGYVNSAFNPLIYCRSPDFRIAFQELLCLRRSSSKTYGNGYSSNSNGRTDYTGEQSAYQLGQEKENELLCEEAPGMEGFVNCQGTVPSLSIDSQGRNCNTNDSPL

Take `CC(Cc1c[nH]c2ccccc12)NCC(O)COc1ccccc1[N+](=O)[O-]` (stereo not drawn) [compound 7808]: in assay [1] (IV), the “cardioselectivity β1 - β2” value is on record as “β1 > β2 (cardioselectivity (β1 >β2))”. Besides, the ED50 in assay [1] (iv) turned out to be 0.3 mg/kg; in assay [2] (iv) it was 1 mg/kg. In assay [1], the “cardioselective in vivo (selectively inhibit the cardiac receptors)” value is listed as “cardioselective in vivo”. The “ID50 NORADRENALINE α” value in [3] came out at 0.3 mg/kg. The EC50 in assay [4] was 28.5 nM; in assay [5], 24 nM; in assay [6], 25 nM; in assay [7], 320 nM. In assay [6], the “affinity for the receptor with clonidine (α2)” value (“affinity … (α2)” for short) is “no affinity”. For the same compound, the “affinity for the receptor with WB 4101 (α1)” value (“affinity … (α1)” for short) in [7] is “have an affinity”. Besides, the “reduction in the peripheral arterial pressure” value (from here on “reduction”) in assay [8] is “reduction in the peripheral arterial pressure”.

Take `Cc1ccccc1OCC(O)CNC(CO)Cc1c[nH]c2ccccc12` (racemic) [compound 7906]: the ED50 was 0.3 to 1 mg/kg in [1] (setting [10]) and 1 mg/kg in assay [2] (setting [11]). In addition, the “cardioselectivity β1 - β2” value in assay [1] (IV) is reported as “β1 ≥ β2 (low cardioselectivity β1 ≥β2)”. Besides, the “ID50 NORADRENALINE α” value in assay [3] was over 3 mg/kg. Moreover, the EC50 in assay [4] (read-out: EC50 of DISPLACEMENT of 3H DIHYDROALPRENOLOL, Heart (β1), dog heart membranes, 3H dihydroalprenolol 4×10^-9 M) worked out at 215 nM; in assay [5] (read-out: EC50 of DISPLACEMENT of 3H DIHYDROALPRENOLOL, Lung (β2), rat lung membranes, 3H dihydroalprenolol 4×10^-9 M), 155 nM; in assay [6] (read-out: EC50 of DISPLACEMENT of 3H CLONIDINE, rat brain membranes, 3H clonidine 1.2×10^-9 M) it was 41 nM; in [7], 1.1 nM. The “reduction” value in assay [8] is “reduction in the peripheral arterial pressure”.

Consider `CC(Cc1c[nH]c2ccccc12)NCC(O)COc1cccc2[nH]ccc12` (stereo not drawn) [compound 7874], for which the “cardioselectivity β1 - β2” value in [1] (IV) was “β1 ≥ β2 (low cardioselectivity β1 ≥β2)”. In addition, the ED50 in assay [1] (iv) is 0.01 mg/kg; in assay [2] (setting [11]), 0.01 to 0.03 mg/kg. For the same compound, the “ID50 NORADRENALINE α” value in assay [3] is given as over 0.03 mg/kg. The EC50 in assay [4] was found to be 4 nM; in assay [5], 8.2 nM; in assay [6], 20 nM; in assay [7], 215 nM. The “affinity … (α1)” value in assay [7] is recorded as “have an affinity”. Besides, the “reduction” value in [8] is “reduction in the peripheral arterial pressure”. Further, the IC50 in [9] is 45000 to 100000 nM. For the same compound, the “inhibition of the platelet response with respect to the ADP” value (from here on “inhibition of the platelet response”) in assay [9] is reported as “inhibited the platelet response”.

For `CC(Cc1c[nH]c2ccccc12)NCC(O)COc1ccccc1C#N` (stereo not drawn) [compound 7824], the “cardioselectivity β1 - β2” value in assay [1] (IV) is reported as “β1 ≥ β2 (low cardioselectivity β1 ≥β2)”. Further, the ED50 in assay [1] (iv) is 0.3 mg/kg; in [2] (iv), at least 0.3 mg/kg. Further, the “ID50 NORADRENALINE α” value in assay [3] is 1 mg/kg. In addition, the EC50 in assay [4] amounted to 13.5 nM; in assay [5] it was 10 nM; in assay [7], 110 nM. The “affinity … (α2)” value in assay [6] is recorded as “no affinity”. The “affinity … (α1)” value in assay [7] was “have an affinity”. Also, in assay [8], the “reduction” value is listed as “reduction in the peripheral arterial pressure”. In addition, the IC50 in [9] fell in the range of 45000 to 100000 nM. The “inhibition of the platelet response” value in [9] is listed as “inhibited the platelet response”.

Turning to `Cc1ccccc1OC[C@H](O)CN[C@H](CO)Cc1c[nH]c2ccccc12` [compound 7903], the ED50 in assay [1] (setting [10]) worked out at 3 mg/kg; in assay [2] (setting [11]), 1 mg/kg. Besides, the “cardioselectivity β1 - β2” value in assay [1] (IV) is “β1 < β2 (no cardioselectivity β1 <β2)”. Further, the “ID50 NORADRENALINE α” value in assay [3] came out at 3 mg/kg. Also, the EC50 was found to be 2050 nM in assay [4] (dog heart membranes, 3H dihydroalprenolol 4×10^-9 M); 2000 nM in [5] (rat lung membranes, 3H dihydroalprenolol 4×10^-9 M); 29.5 nM in assay [6] (rat brain membranes, 3H clonidine 1.2×10^-9 M); 1.9 nM in assay [7]. In [6], the “affinity … (α2)” value was “no affinity”. Besides, the “reduction” value in assay [8] was “reduction in the peripheral arterial pressure”.

Consider `CC(Cc1c[nH]c2ccccc12)NCC(O)COc1ccccc1Cl` (stereo not drawn) [compound 7806], for which the ED50 was 0.3 mg/kg in [1] (iv) and at least 0.1 mg/kg in [2] (iv). Further, the “ID50 NORADRENALINE α” value in assay [3] is 0.3 mg/kg. Further, the EC50 amounted to 27.5 nM in assay [4], 12 nM in assay [5], 12 nM in [6] and 310 nM in [7]. Moreover, in [6], the “affinity … (α2)” value is on record as “no affinity”. Further, the “affinity … (α1)” value in assay [7] is given as “have an affinity”. For the same compound, in assay [8], the “reduction” value is recorded as “reduction in the peripheral arterial pressure”.

Regarding `Cc1ccccc1OCC(O)CNC(C)Cc1c[nH]c2ccccc12` (stereo not drawn) [compound 7744], in assay [1] (IV), the “cardioselectivity β1 - β2” value is listed as “β1 > β2 (cardioselectivity (β1 >β2))”. Besides, the ED50 is 0.1 mg/kg in [1] (iv) and at least 0.3 mg/kg in assay [2] (setting [11]). For the same compound, in assay [1], the “cardioselective in vivo (selectively inhibit the cardiac receptors)” value is on record as “cardioselective in vivo”. Moreover, the “ID50 NORADRENALINE α” value in assay [3] lay in the range of 0.1 to 1 mg/kg. In addition, the EC50 is 31 nM in [4], 52 nM in assay [5], 20.5 nM in [6] and 500 nM in [7]. In addition, in assay [7], the “affinity … (α1)” value is “have an affinity”. Also, the “reduction” value in assay [8] is “reduction in the peripheral arterial pressure”. Moreover, the IC50 in [9] was 45000 to 100000 nM. The “inhibition of the platelet response” value in assay [9] was “inhibited the platelet response”.
